Square brackets hold non-standard residues; d marks the D form. Peptide text beside a SMILES is read from it. * marks the point of attachment. dPhe(4-NHCONH2) = NC(=O)Nc1ccc(C[C@@H](N)C(=O)O)cc1; Dihydroorotyl(S) = O=C1C[C@@H](C(=O)*)NC(=O)N1; dPhe(4-Cl) = N[C@H](Cc1ccc(Cl)cc1)C(=O)O; Phe(4-NH2) = Nc1ccc(C[C@H](N)C(=O)O)cc1; d2Nal = N[C@H](Cc1ccc2ccccc2c1)C(=O)O; Lys(iPr) = CC(C)NCCCC[C@H](N)C(=O)O; d3Pal = N[C@H](Cc1cccnc1)C(=O)O
System: testosterone
Test: Serum testosterone concentration-time profile (LC-MS/MS), clinical trial
Type: in vivo, men
Settings: for Mean time to second return of testosterone to baseline interval (after the second administration): only hypothetical (calculated, not measured)
[1] = 16+16 mg group, after the first administration
[2] = 16+16 mg group, after the second administration
[3] = 32+32 mg group, after the first administration
[4] = 32+32 mg group, after the second administration
[5] = first dose of the 32+32 mg group combined with the single dose 32 mg data

CC(=O)N[C@H](Cc1ccc2ccccc2c1)C(=O)N[C@H](Cc1ccc(Cl)cc1)C(=O)N[C@H](Cc1cccnc1)C(=O)N[C@@H](CO)C(=O)N[C@@H](Cc1ccc(NC(=O)[C@@H]2CC(=O)NC(=O)N2)cc1)C(=O)N[C@H](Cc1ccc(NC(N)=O)cc1)C(=O)N[C@@H](CC(C)C)C(=O)N[C@@H](CCCCNC(C)C)C(=O)N1CCC[C@H]1C(=O)N[C@H](C)C(N)=O [Degarelix, D-Alaninamide, N-acetyl-3-(2-naphthalenyl)-D-alanyl-4-chloro-D-phenylalanyl-3-(3-pyridinyl)-D-alanyl-L-seryl-4-[[[(4S)-hexahydro-2,6-dioxo-4-pyrimidinyl]carbonyl]amino]-L-phenylalanyl-4-[(aminocarbonyl)amino]-D-phenylalanyl-L leucyl-N6-(1-methylethyl)-L-lysyl-L-prolyl] (Ac-[d2Nal][dPhe(4-Cl)][d3Pal]S[Phe(4-NH2)](Dihydroorotyl(S))[dPhe(4-NHCONH2)]L[Lys(iPr)]P[dA]-NH2)
Mean minimal value of testosterone (Cnadir) (32 mg group): 0.9 ng/mL
Mean time for first return of testosterone to baseline interval after the first administration (32 mg group): 9.1 (SD=5.2) days
Mean time of testosterone Cnadir (tnadir) (32 mg group): 1.3 days
Number of patients with testosterone below the castration level 0.5 ng/mL at one or more time-points (32 mg group): 3 patients
Percentage of patients with testosterone below the castration level 0.5 ng/mL at one or more time-points (32 mg group): 25%
Testosterone greatest change from baseline (32 mg group): -4.2 ng/mL
Lowest mean testosterone level (32 mg group, on Day 1): 0.9 ng/mL
Mean area of testosterone concentrations below 0.5 ng/mL (32 mg group, range 0.0-0.1): 0.0 ng·days/mL
Mean minimal value of testosterone (Cnadir) (64 mg group): 0.4 ng/mL
Mean time of testosterone Cnadir (tnadir) (64 mg group): 8.8 days
Number of patients with testosterone below the castration level 0.5 ng/mL at one or more time-points (64 mg group): 9 patients
Percentage of patients with testosterone below the castration level 0.5 ng/mL at one or more time-points (64 mg group): 69%
Testosterone greatest change from baseline (64 mg group): -4.7 ng/mL
Number of patients still below testosterone 0.5 ng/mL on Day 42 (64 mg group, of the 8 patients with testosterone <=0.5 ng/mL): Five
Lowest mean testosterone level (64 mg group, on Day 1): 0.4 ng/mL
Mean area of testosterone concentrations below 0.5 ng/mL (64 mg group, range 0.0-15.2): 4.4 ng·days/mL
Time for testosterone level to recover above 0.5 ng/mL (64 mg group, the other three of 8 patients): ≤ 5 days
Duration of castration (testosterone below 0.5 ng/mL) (16+16 mg administration, the 2 castrated patients): less than 2 days
Mean time for first return of testosterone to baseline interval after the first administration (16+16 mg group): 6.1 (SD=2.8) days
Number of patients with testosterone below the castration level 0.5 ng/mL at one or more time-points (16+16 mg group): 2 patients
Percentage of patients with testosterone below the castration level 0.5 ng/mL at one or more time-points (16+16 mg group): 15%
Testosterone greatest change from baseline (16+16 mg group): -4.0 ng/mL
Mean minimal value of testosterone (Cnadir) [1]: 1.4 ng/mL
Mean time of testosterone Cnadir (tnadir) [1]: 1.1 days
Mean minimal value of testosterone (Cnadir) [2]: 2.0 ng/mL
Mean time of testosterone Cnadir (tnadir) [2]: 4.0 days
Lowest mean testosterone level (16+16 mg group, on Day 1): 1.4 ng/mL
Mean time to second return of testosterone to baseline interval (after the second administration) (16+16 mg group): 19.5 (SD=33.9) days
Mean area of testosterone concentrations below 0.5 ng/mL (16+16 mg group, range 0.0-0.0): 0.0 ng·days/mL
Time for testosterone level to recover above 0.5 ng/mL (16+16 and 32 mg groups, 4 of the 5 patients): ≤ 2 days
Time for testosterone level to recover above 0.5 ng/mL (16+16 and 32 mg groups, the remaining patient of 5): ≤ 4 days
Mean time for first return of testosterone to baseline interval after the first administration (32+32 mg group): 9.1 (SD=2.6) days
Number of patients not suppressed below 0.5 ng/mL after the first administration but reaching this level after the second injection (32+32 mg group): Five
Number of patients with testosterone below the castration level 0.5 ng/mL at one or more time-points (32+32 mg group): 9 patients
Number of subjects that had not regained testosterone levels >0.5 ng/mL at Day 42 (32+32 mg group): Three
Percentage of patients with testosterone below the castration level 0.5 ng/mL at one or more time-points (32+32 mg group): 75%
Testosterone greatest change from baseline (32+32 mg group): -4.1 ng/mL
Time for testosterone level to recover above 0.5 ng/mL (32+32 mg group, after first administration, 3 of 4 patients): ≤ 2 days
Mean minimal value of testosterone (Cnadir) [3]: 0.6 ng/mL
Mean time of testosterone Cnadir (tnadir) [3]: 3.2 days
Mean minimal value of testosterone (Cnadir) [4]: 0.4 ng/mL
Mean time of testosterone Cnadir (tnadir) [4]: 4.3 days
Lowest mean testosterone level (32+32 mg group, after the second administration, on Day 17): 0.4 ng/mL
Number of patients with testosterone below 0.5 ng/mL after the first degarelix administration (32+32 mg group, of the 9 patients with testosterone <=0.5 ng/mL): Four
Mean time to second return of testosterone to baseline interval (after the second administration) (32+32 mg group): 64.2 (SD=83.5) days
Mean area of testosterone concentrations below 0.5 ng/mL (32+32 mg group, range 0.0-15.3): 2.8 ng·days/mL
Mean testosterone level (Day 42, 32 mg group): 5.3 ng/mL
Mean testosterone level (Day 42, 64 mg group): 3.0 ng/mL
Mean testosterone level (Day 42, 16+16 mg group): 4.5 ng/mL
Mean testosterone level (Day 42, 32+32 mg group): 2.7 ng/mL
Number of patients with testosterone below the castration level 0.5 ng/mL at one or more time-points (all groups, of the 50 patients, up to Day 42): 22 patients
Mean testosterone level (baseline, 32 mg group): 5.2 ng/mL
Mean testosterone level (baseline, 64 mg group): 5.2 ng/mL
Mean testosterone level (baseline, 16+16 mg group): 5.5 ng/mL
Mean testosterone level (baseline, 32+32 mg group): 4.5 ng/mL
Duration of castration (testosterone below 0.5 ng/mL) (first dose of the 32+32 mg group combined with single dose 32 mg, the 8 castrated patients, generally): 2 to 4 days
Number of patients castrated (testosterone below 0.5 ng/mL) [5]: 8 patients
Percentage of patients castrated (testosterone below 0.5 ng/mL) [5]: 33%
Testosterone area below and time to return to the baseline interval, total 64 mg vs total 32 mg (groups given a total of 64 mg degarelix compared to the total dose 32 mg): more than 2 fold
